In series [1] the test system is pentagastrin-stimulated acid secretion of the perfused rat stomach. In words: Testing of the secretion-inhibiting action on the perfused rat stomach. The conditions noted are these: dose 1 μmol/kg i.d. (intraduodenal), perfused stomach of anesthetized female CD rat, in vivo. The source says:
In Table A which follows, the influence of the compounds according to the invention on the pentagastrin-stimulated acid secretion of the perfused rat stomach after intraduodenal administration in vivo is shown.
The abdomen of anesthetized rats (CD rat, rat, female, 200-250 g; 1.5 g/kg l.m. urethane) was opened after trachetomy by a median upper abdominal incision and a PVC catheter was fixed transorally in the esophagus and another via the pylorus such that the ends of the tubes just projected into the gastric lumen. The catheter leading from the pylorus led outward into the right abdominal wall through a side opening.
After thorough rinsing (about 50-100 ml), warm (37° C.) physiological NaCl solution was continuously passed through the stomach (0.5 ml/min, pH 6.8-6.9; Braun-Unita 1). The pH (pH meter 632, glass electrode EA 147; φ=5 mm, Metrohm) and, by titration with a freshly prepared 0.01N NaOH solution to pH 7 (Dosimat 665 Metrohm), the secreted HCl were determined in the effluent in each case collected at an interval of 15 minutes.
The gastric secretion was stimulated by continuous infusion of 1 μg/kg (=1.65 ml/h) of i.v. pentagastrin (left femoral vein) about 30 min after the end of the operation (i.e. after determination of 2 preliminary fractions). The substances to be tested were administered intraduodenally in a 2.5 ml/kg liquid volume 60 min after the start of the continuous pentagastrin infusion.
The body temperature of the animals was kept at a constant 37.9-38° C. by infrared irradiation and heat pads (automatic, stepless control by means of a rectal temperature sensor).

The text below walks through data of patent US7307084B2, “Cyclic benzimidazoles” (Altana Pharma AG, priority 2003, dated 2007).

Where only a bound is given, the exact number is not on record here.

In general, melting point refers to the temperature, or range, at which the solid turns liquid.

In turn, `COCCNC(=O)c1cc2c(nc(C)n2C)c2c1CCC(c1ccccc1)O2` (centres unmarked) [Example 6, 2,3-Dimethyl-8-phenyl-3,6,7,8-tetrahydro-chromeno[7,8-d]imidazole-5-carboxylic Acid (2-Methoxy-ethyl)amide] came in with a melting point of 254 to 256 °C. For the molecule `CNC(=O)c1cc2c(nc(C)n2C)c2c1CCC(c1ccccc1)O2` (centres unmarked) [Example 4, 2,3-Dimethyl-8-phenyl-4,6,7,8-tetrahydro-chromeno[7,8-d] imidazole-5-carboxylic Acid Methylamide], the “Inhibition of acid secretion” value in series [1] was above 50%.

Consider `Cc1nc2c3c(c(CO)cc2n1C)CCC(c1ccccc1)N3` (centres unmarked) [Example 31, 5-Hydroxymethyl-2,3-dimethyl-8-phenyl-6,7,8,9tetrahydro-3H-imidazo[4,5-h]quinoline], for which the melting point lay within 253 to 254 °C. Still for that read-out and setting: under `COCCOCc1cc2c(nc(C)n2C)c2c1CCC(c1ccccc1)O2.O=C(O)C(=O)O` (centres unmarked) [Example 12, 5-(2-Methoxy-ethoxymethyl)-2,3-dimethyl-8-phenyl-3,6,7,8-tetrahydro-chromeno[7,8-d]-imidazole Oxalic Acid] stands 131 to 133 °C; under `CCc1nc2c3c(c(C(=O)N(C)C)c(-c4ccccc4)c2n1C)CCCO3` [Example 24, 2-Ethyl-3-methyl-4-phenyl-3,6,7,8-tetrahydro-chromeno[7,8-d]imidazole-5-carboxylic Acid Dimethylamide], 195 to 197 °C; under `CCCNC(=O)c1cc2c(nc(C)n2C)c2c1CCC(c1ccccc1)O2` (centres unmarked) [Example 19, 2,3Dimethyl-8-phenyl-3,6,7,8-tetrahydro-chromeno[7,8-d]imidazole-5-carboxylic Acid Propyl-amide], 273 °C. `CNC(=O)c1cc2c(nc(C)n2C)c2c1CCC(c1ccccc1)N2` (centres unmarked) [Example 29, 2,3-Dimethyl-8-phenyl-6,7,8,9-tetrahydro-3H-imidazo[4,5-h]quinoline-5-carboxylic Acid Methylamide] gave a melting point of 259 °C. Moreover, the “Inhibition of acid secretion” value in series [1] is above 50%.

Molecule `Cc1nc2c3c(c(C(=O)NCCO)cc2n1C)CCC(c1ccccc1)O3` (centres unmarked) [Example 5, 2,3 Dimethyl-8-phenyl-3,6,7,8-tetrahydro-chromeno[7,8-d]imidazole-5-carboxylic Acid (2-Hydroxy-ethyl)-amide] returned a melting point of 228 to 229 °C. Regarding `CCOC(=O)c1cc2c(nc(C)n2C)c2c1CCC(c1ccccc1)N2` (centres unmarked) [Example 25, Ethyl 2,3-dimethyl-8-phenyl-6,7,8,9-tetrahydro-3H-imidazo[4,5-h]quinoline-5-carboxylate], the melting point fell in the range of 185 to 186 °C. As for `Cc1nc2c3c(c(C(N)=O)cc2n1C)CCC(c1ccccc1)N3` (centres unmarked) [Example 28, 2,3-Dimethyl-8-phenyl-6,7,8,9-tetrahydro-3H-imidazo[4,5-h]quinoline-5-carboxylic Acid Amide], the melting point was in the range of 311 to 319 °C. Consider `Cc1nc2c3c(c(C(=O)N(C)C)cc2n1C)CCC(c1ccccc1)N3` (centres unmarked) [Example 2, 2,3-Dimethyl-8-phenyl-6,7,8,9-tetrahydro-3H-imidazo[4,5-h]quinoline-5-carboxylic Acid Dimethylamide], for which the melting point was 167 to 170 °C. The “Inhibition of acid secretion” value in series [1] is listed as above 50%. `CC(C)c1nc2c3c(c(C(=O)N(C)C)cc2n1C)CCC(c1ccccc1)O3` (centres unmarked) [Example 9, 2-Isopropyl-3-methyl-8-phenyl-3,6,7,8-tetrahydro-chromeno[7,8-d]imidazole-5-carboxylic Acid Dimethylamide] had a melting point of 179 to 180 °C. Take `CN(C)C(=O)c1cc2c(nc(C(F)(F)F)n2C)c2c1CCC(c1ccccc1)O2` (centres unmarked) [Example 14, 3-Methyl-8-phenyl-2-trifluoromethyl-3,6,7,8-tetrahydro-chromeno[7,8-d]imidazole-5-carboxylic Acid Dimethylamide]: the melting point is 223 to 225 °C.

Take `Cc1nc2c3c(c(C(=O)N4CC4)cc2n1C)CCC(c1ccccc1)O3` (centres unmarked) [Example 13, 1-Aziridin-1-yl-(2,3-dimethyl-8-phenyl-3,6,7,8-tetrahydro-chromeno[7,8-d]imidazol-5-yl)-methanone]: the melting point is 201 to 204 °C. Same read-out and setting: under `Cc1nc2c3c(ccc2n1C)CCC(c1ccccc1)O3` (centres unmarked) [Example 36, 2,3-Dimethyl-8-phenyl-3,6,7,8-tetrahydro-chromeno[7,8-d]imidazole] stands 161 to 164 °C. Regarding `Cc1nc2c3c(c(C(=O)N(C)C)cc2n1C)CCC(c1ccccc1)O3` (centres unmarked) [Example 1, 2,3-Dimethyl-phenyl-3,6,7,8-tetrahydro-chromeno[7,8-a]imidazole-5-carboxylic Acid Dimethylamide], the “Inhibition of acid secretion” value in series [1] was above 50%. As to `Cc1nc2c3c(c(C(=O)NCC(O)CO)cc2n1C)CCC(c1ccccc1)O3` (centres unmarked) [Example 21, 2,3-Dimethyl-8-phenyl-3,6,7,8tetrahydro-chromeno[7,8-d]imidazole-5-carboxylic Acid (2,3-Dihydroxy-propyl)amide], the melting point was 268 to 270 °C. `CN(C)C(=O)c1cc2c(nc(C3CC3)n2C)c2c1CCC(c1ccccc1)O2` (centres unmarked) [Example 10, 2-Cyclopropyl-3-methyl-8-phenyl-3,6,7,8-tetrahydro-chromeno[7,8-d]imidazole-5-carboxylic Acid Dimethylamide]: the melting point lay in the range of 176 to 179 °C. Also, the “Inhibition of acid secretion” value in series [1] is listed as above 50%.

Molecule `Cc1nc2c3c(c(C(=O)NC4CC4)cc2n1C)CCC(c1ccccc1)O3` (centres unmarked) [Example 35, 2,3-Dimethyl-8-phenyl-3,6,7,8-tetrahydro-chromeno[7,8-d]imidazole-5-carboxylic Acid Cyclopropylamide] gave a melting point of 312 to 313 °C. Molecule `Cc1nc2c3c(c(CO)cc2n1C)CCC(c1ccccc1)O3` (centres unmarked) [Example 17, (2,3-Dimethyl-8-phenyl-3,6,7,8-tetrahydro-chromeno[7,8-d]imidazol-5-yl)methanol] gave a melting point of 279 to 281 °C. `CC(=O)N(C)c1cc2c(nc(C)n2C)c2c1CCC(c1ccccc1)O2` (centres unmarked) [Example 23, N-(2,3-Dimethyl-8-phenyl-3,6,7,8-tetrahydro-chromeno[7,8-d]imidazol-5-yl)-N-methyl-acetamide] had a melting point of 214 to 216 °C. Still for that read-out and setting: the result for `Cc1nc2c3c(c(C(=O)N4CCOCC4)cc2n1C)CCC(c1ccccc1)O3` (centres unmarked) [Example 7, 1-(2,3-Dimethyl-8-phenyl-3,6,7,8-tetrahydro-chromeno[7,8-d]imidazol-5-yl)-1-morpholin-4-yl-methanone] reads 291 to 293 °C. The same measure, in the same setting: the result for `Cc1nc2c3c(c(C(N)=O)cc2n1C)CCC(c1ccccc1)O3` (centres unmarked) [Example 3, 2,3-Dimethyl-8-phenyl-3,6,7,8tetrahydro-chromeno[7,8-d]imidazole-5-carboxylic Acid Amide] reads 264 to 267 °C. In the case of `CNC(=O)c1cc2c(nc(C)n2C)c2c1CC[C@@H](c1ccccc1)N2` [32 (8S), (8S)-2,3-dimethyl-8-phenyl-6,7,8,9-tetrahydro-3H-imidazo[4,5-h]quinoline-5-carboxylic acid methylamide], the “Inhibition of acid secretion” value in series [1] is on record as above 50%. The same measure, in the same setting: the result for `Cc1nc2c3c(c(C(=O)N(C)C)cc2n1C)CC[C@@H](c1ccccc1)O3` [33 (8S), (8S)-2,3-Dimethyl-8-phenyl-3,6,7,8-tetrahydro-chromeno[7,8-d]imidazole-5-carboxylic Acid Dimethylamide] reads above 50%; that for `Cc1nc2c3c(c(C(=O)N4CCC4)cc2n1C)CCC(c1ccccc1)O3` (centres unmarked) [Example 18, 1-Azetidin-1-yl-1-(2,3-dimethyl-8-phenyl-3,6,7,8-tetrahydro-chromeno[7,8-d]imidazol-5-yl)-methanone], above 50%. In turn, `Cc1nc2c3c(c(C(=O)O)cc2n1C)CCC(c1ccccc1)N3` (centres unmarked) [Example 26, 2,3-Dimethyl-8-phenyl-6,7,8,9-tetrahydro-3H-imidazo[4,5-h]quinoline-5-carboxylic Acid] came in with a melting point of 325 to 326 °C.

For the molecule `Cc1nc2c3c(c(C(=O)O)cc2n1C)CCC(c1ccccc1)O3` (centres unmarked) [Example 16, 2,3-Dimethyl-8-phenyl-3,6,7,8-tetrahydro-chromeno[7,8-d]imidazole-5-carboxylic Acid], the melting point lay in the range of 323 to 326 °C. The same measure, in the same setting: the result for `CCOC(=O)c1cc2c(nc(C)n2C)c2c1CCC(c1ccccc1)O2` (centres unmarked) [Example 15, 2,3-Dimethyl-8-phenyl-3,6,7,8-tetrahydro-chromeno[7,8-d]imidazole-5-carboxylic Acid Ethyl Ester] reads 172 to 173 °C.

Consider `COCc1cc2c(nc(C)n2C)c2c1CCC(c1ccccc1)O2.O=C(O)C(=O)O` (centres unmarked) [Example 11, 5-Methoxymethyl-2,3-dimethyl-8-phenyl-3,6,7,8-tetrahydro-chromeno[7,8-d]imidazole Oxalic Acid], for which the melting point lay within 204 to 205 °C. The same measure, in the same setting: under `Cc1nc2c3c(c(C(=O)NN4CC4)cc2n1C)CCC(c1ccccc1)N3` (centres unmarked) stands 192 to 193 °C. `COCn1c(C)nc2c3c(c(C(=O)N(C)C)cc21)CCC(c1ccccc1)O3` (centres unmarked) [Example 22, 3Methoxymethyl-2-methyl-8-phenyl-3,6,7,8-tetrahydro-chromeno[7,8-d]imidazole-5-carboxylic Acid Dimethylamide] returned a melting point of 213 to 215 °C.
